The results in this text go back to ChEMBL document CHEMBL1641409, “Synthesis and SAR study of new phenylimidazole-pyrazolo[1,5-c]quinazolines as potent phosphodiesterase 10A inhibitors” (Bioorg Med Chem, 2011).

Series [1] deals with Plasma. As to the kind of experiment: Drug level in mouse plasma at 5 mg/kg, sc. Set-up: dose 5 mg/kg, route subcutaneous. The settings on record: in vivo. In kind it is ADME, organism-based.
The subject of series [2] is Brain. Kind of series: Drug level in mouse brain measured per gram of tissue at 5 mg/kg, sc. The class given is ADME, organism-based. Also on record: dose 5 mg/kg, route subcutaneous. The settings on record: in vivo.
The target in series [3] is cAMP and cAMP-inhibited cGMP 3',5'-cyclic phosphodiesterase 10A (Homo sapiens, UniProt Q9Y233). Kind of series: Inhibition of human PDE10A expressed in Sf9 cells using [3H]cAMP by scintillation proximity assay. (In general: SPA uses beads or plates that emit light when radiolabelled molecules are held near them.)
Sequence of cAMP and cAMP-inhibited cGMP 3',5'-cyclic phosphodiesterase 10A (Q9Y233 whole entry): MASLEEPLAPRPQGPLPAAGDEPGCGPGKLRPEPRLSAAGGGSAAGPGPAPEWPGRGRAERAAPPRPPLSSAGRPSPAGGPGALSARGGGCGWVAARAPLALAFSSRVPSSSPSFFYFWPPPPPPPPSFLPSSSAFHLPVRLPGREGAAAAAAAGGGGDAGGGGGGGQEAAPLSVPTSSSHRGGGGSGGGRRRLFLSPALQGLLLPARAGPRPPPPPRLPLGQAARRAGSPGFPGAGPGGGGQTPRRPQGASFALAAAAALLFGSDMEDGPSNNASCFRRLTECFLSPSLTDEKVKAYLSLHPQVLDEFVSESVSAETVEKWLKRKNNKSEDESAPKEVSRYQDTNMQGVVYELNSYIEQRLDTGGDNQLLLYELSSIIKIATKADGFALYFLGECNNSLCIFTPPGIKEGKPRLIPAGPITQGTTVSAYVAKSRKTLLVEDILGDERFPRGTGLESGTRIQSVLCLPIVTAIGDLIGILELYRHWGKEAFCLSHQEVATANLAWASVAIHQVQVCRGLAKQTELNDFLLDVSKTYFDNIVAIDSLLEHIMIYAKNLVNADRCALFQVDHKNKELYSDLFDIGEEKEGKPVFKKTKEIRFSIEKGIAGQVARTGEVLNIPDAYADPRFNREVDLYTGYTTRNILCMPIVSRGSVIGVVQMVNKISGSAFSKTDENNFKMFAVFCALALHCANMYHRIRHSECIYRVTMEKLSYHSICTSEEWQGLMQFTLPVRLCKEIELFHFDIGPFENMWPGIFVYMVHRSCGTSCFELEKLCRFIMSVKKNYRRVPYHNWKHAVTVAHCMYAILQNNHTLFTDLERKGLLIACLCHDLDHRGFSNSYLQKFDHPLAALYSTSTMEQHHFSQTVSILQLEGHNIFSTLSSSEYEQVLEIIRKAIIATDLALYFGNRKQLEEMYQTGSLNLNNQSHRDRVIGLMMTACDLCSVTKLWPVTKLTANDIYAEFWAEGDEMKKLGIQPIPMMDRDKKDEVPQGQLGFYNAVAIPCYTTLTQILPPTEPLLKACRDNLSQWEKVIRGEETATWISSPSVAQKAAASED
The nature of series [4]: Ratio of drug level in brain to plasma in mouse at 5 mg/kg, sc. The class given is ADME, organism-based. Set-up: dose 5 mg/kg, route subcutaneous. The settings on record: read-out: BPR.
In series [5] the target is cGMP-specific 3',5'-cyclic phosphodiesterase (Homo sapiens, UniProt O76074). Kind of series: Inhibition of PDE5A.
In series [6] the target is Dual specificity calcium/calmodulin-dependent 3',5'-cyclic nucleotide phosphodiesterase 1B (Homo sapiens, UniProt Q01064). Kind of series: Inhibition of PDE1B.
Sequence of Dual specificity calcium/calmodulin-dependent 3',5'-cyclic nucleotide phosphodiesterase 1B (Q01064 whole entry): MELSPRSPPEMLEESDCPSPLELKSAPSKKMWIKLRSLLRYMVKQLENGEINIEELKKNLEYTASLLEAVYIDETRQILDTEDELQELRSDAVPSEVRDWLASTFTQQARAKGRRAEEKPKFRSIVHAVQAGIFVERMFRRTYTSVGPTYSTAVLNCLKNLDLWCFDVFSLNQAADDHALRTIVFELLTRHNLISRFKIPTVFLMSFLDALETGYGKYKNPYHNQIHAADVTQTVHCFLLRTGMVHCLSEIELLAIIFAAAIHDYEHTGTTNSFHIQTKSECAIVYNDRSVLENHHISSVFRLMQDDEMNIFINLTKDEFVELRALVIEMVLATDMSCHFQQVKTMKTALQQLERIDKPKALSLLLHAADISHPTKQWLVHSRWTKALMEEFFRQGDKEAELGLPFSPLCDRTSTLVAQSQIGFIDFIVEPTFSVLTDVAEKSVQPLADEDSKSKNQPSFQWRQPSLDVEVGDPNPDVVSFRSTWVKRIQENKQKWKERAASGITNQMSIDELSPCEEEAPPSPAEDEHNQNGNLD
Series [7] concerns the target 3',5'-cyclic-AMP phosphodiesterase 4D (Homo sapiens, UniProt Q08499). Kind of series: Inhibition of PDE4D6.
The target in series [8] is cGMP-inhibited 3',5'-cyclic phosphodiesterase 3A (Homo sapiens, UniProt Q14432). As to the kind of experiment: Inhibition of PDE3A.
Sequence of cGMP-inhibited 3',5'-cyclic phosphodiesterase 3A (Q14432 whole entry): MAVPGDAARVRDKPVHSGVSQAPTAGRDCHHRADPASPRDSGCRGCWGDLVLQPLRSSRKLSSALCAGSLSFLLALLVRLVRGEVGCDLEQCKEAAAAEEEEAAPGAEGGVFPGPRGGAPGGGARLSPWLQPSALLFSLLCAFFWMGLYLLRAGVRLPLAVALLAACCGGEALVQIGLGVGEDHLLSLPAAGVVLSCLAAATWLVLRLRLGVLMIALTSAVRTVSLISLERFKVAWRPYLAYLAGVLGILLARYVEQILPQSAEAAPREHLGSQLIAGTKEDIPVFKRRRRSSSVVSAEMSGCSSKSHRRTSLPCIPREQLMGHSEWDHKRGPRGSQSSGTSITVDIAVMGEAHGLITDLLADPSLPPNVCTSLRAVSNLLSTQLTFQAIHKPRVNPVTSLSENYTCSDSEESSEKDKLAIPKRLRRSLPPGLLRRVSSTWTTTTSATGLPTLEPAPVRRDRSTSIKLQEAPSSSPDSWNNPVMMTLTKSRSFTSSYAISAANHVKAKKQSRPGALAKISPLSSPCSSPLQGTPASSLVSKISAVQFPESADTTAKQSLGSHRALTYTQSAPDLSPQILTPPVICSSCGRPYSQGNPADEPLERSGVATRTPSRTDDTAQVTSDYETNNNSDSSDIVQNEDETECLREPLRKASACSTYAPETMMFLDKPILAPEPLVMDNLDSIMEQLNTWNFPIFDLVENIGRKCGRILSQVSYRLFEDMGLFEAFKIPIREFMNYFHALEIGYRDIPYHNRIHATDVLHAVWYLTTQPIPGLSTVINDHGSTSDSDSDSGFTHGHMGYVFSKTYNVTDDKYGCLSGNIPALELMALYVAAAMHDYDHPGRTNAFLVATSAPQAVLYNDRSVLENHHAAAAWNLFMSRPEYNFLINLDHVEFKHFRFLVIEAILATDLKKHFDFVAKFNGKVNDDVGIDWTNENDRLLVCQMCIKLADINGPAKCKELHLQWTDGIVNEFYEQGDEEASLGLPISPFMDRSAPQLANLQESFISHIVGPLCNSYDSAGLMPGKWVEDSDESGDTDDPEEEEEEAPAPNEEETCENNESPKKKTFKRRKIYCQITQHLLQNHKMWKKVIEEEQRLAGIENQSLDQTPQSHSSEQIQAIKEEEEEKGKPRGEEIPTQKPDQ
Series [9] has as its target 3',5'-cyclic-AMP phosphodiesterase 7B (Homo sapiens, UniProt Q9NP56). As to the kind of experiment: Inhibition of PDE7B.
The nature of series [10]: Ratio of drug level in brain to plasma in mouse at 2 mg/kg, po. The conditions noted are these: read-out: BPR. Also on record: dose 2 mg/kg, route oral. The class given is ADME, organism-based.
Series [11] has as its system Brain. As to the kind of experiment: Drug level in mouse brain measured per gram of tissue at 2 mg/kg, po. Also on record: dose 2 mg/kg, route oral. In kind it is ADME, organism-based. The settings on record: in vivo.
In series [12] the test system is Plasma. Kind of series: Drug level in mouse plasma at 2 mg/kg, po. The class given is ADME, organism-based. Also on record: dose 2 mg/kg, route oral. The settings on record: in vivo.

Sequence of 3',5'-cyclic-AMP phosphodiesterase 7B (Q9NP56 whole entry): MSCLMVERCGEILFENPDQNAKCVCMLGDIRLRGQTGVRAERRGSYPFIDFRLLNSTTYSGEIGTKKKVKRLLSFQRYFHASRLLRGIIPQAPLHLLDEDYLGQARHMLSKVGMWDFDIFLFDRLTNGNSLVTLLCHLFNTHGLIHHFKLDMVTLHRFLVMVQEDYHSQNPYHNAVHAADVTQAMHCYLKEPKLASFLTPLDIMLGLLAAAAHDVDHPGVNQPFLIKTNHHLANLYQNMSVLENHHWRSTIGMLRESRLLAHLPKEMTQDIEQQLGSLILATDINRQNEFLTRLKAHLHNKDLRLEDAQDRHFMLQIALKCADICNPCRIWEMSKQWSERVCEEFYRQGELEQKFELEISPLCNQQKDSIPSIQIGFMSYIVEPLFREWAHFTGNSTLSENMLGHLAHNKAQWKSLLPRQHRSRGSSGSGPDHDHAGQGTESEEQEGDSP
Sequence of 3',5'-cyclic-AMP phosphodiesterase 4D (Q08499 whole entry): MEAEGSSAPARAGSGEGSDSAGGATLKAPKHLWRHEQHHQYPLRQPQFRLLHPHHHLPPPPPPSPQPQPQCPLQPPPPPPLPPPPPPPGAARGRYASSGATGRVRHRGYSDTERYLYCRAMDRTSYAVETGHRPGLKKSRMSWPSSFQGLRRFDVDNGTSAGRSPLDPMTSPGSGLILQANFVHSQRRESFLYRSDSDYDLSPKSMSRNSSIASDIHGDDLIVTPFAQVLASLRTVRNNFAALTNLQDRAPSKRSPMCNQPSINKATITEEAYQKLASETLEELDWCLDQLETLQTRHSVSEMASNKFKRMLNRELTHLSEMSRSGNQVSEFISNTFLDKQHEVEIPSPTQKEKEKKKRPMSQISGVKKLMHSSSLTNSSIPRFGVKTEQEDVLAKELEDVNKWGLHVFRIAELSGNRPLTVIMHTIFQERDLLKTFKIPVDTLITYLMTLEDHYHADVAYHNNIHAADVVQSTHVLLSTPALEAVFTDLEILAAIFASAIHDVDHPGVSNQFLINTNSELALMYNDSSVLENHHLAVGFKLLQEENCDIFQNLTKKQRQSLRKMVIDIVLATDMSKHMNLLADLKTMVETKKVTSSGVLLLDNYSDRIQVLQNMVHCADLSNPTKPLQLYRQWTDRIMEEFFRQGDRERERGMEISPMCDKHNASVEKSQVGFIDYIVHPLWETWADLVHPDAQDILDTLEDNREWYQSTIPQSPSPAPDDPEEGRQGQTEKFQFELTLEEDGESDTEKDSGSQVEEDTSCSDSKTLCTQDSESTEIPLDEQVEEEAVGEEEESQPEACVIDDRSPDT

Consider `Cc1cc2c3ccccc3nc(CCc3nc(-c4ccccc4)cn3C)n2n1`, for which the Drug uptake was determined as 150 ng/mL in the series on Plasma [1] and 98 ng/mL with Brain [2]. The same compound displayed an IC50 in [3] of 50 nM. Moreover, the Kp in series [4] worked out at 0.65.
In series [3], `Cc1cc2c3ccc(Cl)cc3nc(CCc3nc(-c4ccccc4)cn3C)n2n1` showed an IC50 of 50 nM.
In [3], `COc1ccc2nc(CCc3nc(-c4ccccc4)cn3C)n3nc(C)cc3c2c1` gave an IC50 of 430 nM.
In turn, `Cc1cc2c3cc(Cl)ccc3nc(CSc3nc(-c4ccccc4)cn3C)n2n1` had an IC50 in series [3] of 110 nM.
In series [3], `Cc1cc2c3cccc(Cl)c3nc(CSc3nc(-c4ccccc4)cn3C)n2n1` came in with a half-inhibitory concentration (IC50) of 73 nM.
Regarding `Cc1cc2c3cccc(C)c3nc(CSc3nc(-c4ccccc4)cn3C)n2n1`, in series [3], the IC50 worked out at 160 nM.
Still for that read-out and setting: with `Cc1cc2c3ccc(Cl)cc3nc(CSc3nc(-c4ccccc4)cn3C)n2n1` the figure was 130 nM; with `Cc1ccc2nc(CSc3nc(-c4ccccc4)cn3C)n3nc(C)cc3c2c1`, 76 nM.
As to `Cc1cc2c3cccc(Cl)c3nc(CCc3nc(-c4ccccc4)cn3C)n2n1`, the IC50 in series [3] turned out to be 52 nM.
`Cc1ccc2nc(CCc3nc(-c4ccccc4)cn3C)n3nc(C)cc3c2c1`: the IC50 in series [5] was 10000 nM; in [3] it was 16 nM; in series [6], 10000 nM; in [7] it was 10000 nM; in series [8], 10000 nM; in series [9], 10000 nM.
For `COc1cccc2c1nc(CSc1nc(-c3ccccc3)cn1C)n1nc(C)cc21`, in series [3], it took 83 nM to reach half-maximal inhibition (IC50).
In turn, `Cc1cc2c3cccc(C)c3nc(CCc3nc(-c4ccccc4)cn3C)n2n1` returned an IC50 in series [3] of 78 nM.
In the case of `COc1ccc2c(c1)nc(CCc1nc(-c3ccccc3)cn1C)n1nc(C)cc21`, the IC50 in series [3] was determined as 31 nM.
In series [3], `COc1cccc2c1nc(CCc1nc(-c3ccccc3)cn1C)n1nc(C)cc21` showed an IC50 of 37 nM.
In turn, `Cc1cc2c3cc(Cl)ccc3nc(CCc3nc(-c4ccccc4)cn3C)n2n1` returned an IC50 in series [3] of 16 nM.
In turn, `COc1ccc2c(c1)nc(CSc1nc(-c3ccccc3)cn1C)n1nc(C)cc21` gave an IC50 in [3] of 100 nM.
The compound `Cc1cc2c3ccccc3nc(CSc3nc(-c4ccccc4)cn3C)n2n1` had an IC50 in series [3] of 48 nM.
Regarding `Cc1nc2c3ccccc3nc(SCc3nc4ccccc4[nH]3)n2n1`, the IC50 in series [5], in [6], in series [7], in series [8] and in [9] was 10000 nM each time. In addition, the Kp in [10] is < 0.04. Besides, the Drug uptake with Brain [11] was < 25 ng/mL; in the series on Plasma [12], 629 ng/mL.

For orientation: IC50 means the concentration at which inhibition is half-maximal.
